The subject of test [1] is processing of influenza viral hemagglutinin in cultured MDCK cells. Particulars: cited from earlier work.
In test [2] the target is T1, Drosophila Golgi α-mannosidase II (dGMII) (Drosophila melanogaster, UniProt Q24451).
T1 sequence (Q24451 31-1108 limits assumed): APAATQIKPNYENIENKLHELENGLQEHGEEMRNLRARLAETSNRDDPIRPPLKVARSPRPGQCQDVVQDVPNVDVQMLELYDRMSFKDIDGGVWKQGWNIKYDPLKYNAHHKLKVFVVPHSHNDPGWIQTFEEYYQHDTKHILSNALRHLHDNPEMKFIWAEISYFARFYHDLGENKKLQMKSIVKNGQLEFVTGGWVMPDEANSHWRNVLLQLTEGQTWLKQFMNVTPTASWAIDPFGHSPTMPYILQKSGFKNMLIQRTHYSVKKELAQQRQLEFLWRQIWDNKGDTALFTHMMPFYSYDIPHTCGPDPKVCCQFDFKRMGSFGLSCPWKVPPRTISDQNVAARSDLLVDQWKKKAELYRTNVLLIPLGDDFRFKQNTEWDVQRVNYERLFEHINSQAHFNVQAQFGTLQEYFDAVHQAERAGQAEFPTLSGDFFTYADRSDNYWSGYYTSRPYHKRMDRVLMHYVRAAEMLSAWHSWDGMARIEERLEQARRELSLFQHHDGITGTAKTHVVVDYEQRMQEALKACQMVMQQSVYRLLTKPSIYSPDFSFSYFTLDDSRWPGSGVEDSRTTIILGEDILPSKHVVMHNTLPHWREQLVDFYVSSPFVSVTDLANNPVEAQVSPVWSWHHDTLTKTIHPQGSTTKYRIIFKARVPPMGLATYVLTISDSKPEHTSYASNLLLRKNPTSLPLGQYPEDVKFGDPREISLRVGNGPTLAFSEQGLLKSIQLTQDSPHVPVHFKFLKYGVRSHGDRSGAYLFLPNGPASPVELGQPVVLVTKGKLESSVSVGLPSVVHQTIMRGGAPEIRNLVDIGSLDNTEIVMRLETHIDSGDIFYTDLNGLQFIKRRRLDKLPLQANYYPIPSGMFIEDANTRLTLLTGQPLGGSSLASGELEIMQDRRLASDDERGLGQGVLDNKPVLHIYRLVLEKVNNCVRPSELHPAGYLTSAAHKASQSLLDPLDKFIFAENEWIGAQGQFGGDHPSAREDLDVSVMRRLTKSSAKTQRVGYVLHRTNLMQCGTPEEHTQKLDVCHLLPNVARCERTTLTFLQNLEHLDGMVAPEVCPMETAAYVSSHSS
In kind it is biochemical.

This is an account of results in publication PMC3956299 (Chembiochem : a European journal of chemical biology, 2009).

Structures are written as SMILES.

For `CS[C@@H]1[C@@H](N)[C@@H](O)[C@@H](O)[C@H]1O` [Compound 1, Mannostatin A], the “effect on processing of influenza viral hemagglutinin” value in test [1] is reported as “effectively blocked the processing of influenza viral hemagglutinin”. Take `N[C@@H]1C[C@H](O)[C@H](O)[C@@H]1O` [Compound 3, (1S, 2S, 3R, 4R)-4-aminocyclopentane-1,2,3-triol]: in test [2], the “inhibitory activity in words” value was “very poor inhibitor”. Regarding `CO[C@@H]1[C@@H](N)[C@@H](O)[C@@H](O)[C@H]1O` [Compound 5, (1R, 2R, 3R, 4S, 5R)-4-Amino-5-methoxycyclopentane-1,2,3-triol], the “fold enhancement of potency on changing hydroxyl of 4 to methoxy” value in test [2] (relative to 4 (4a)) is ~ 4 fold.
